Literature values, collected in patent US7605152B2, “17-hydroxy-4-aza-androstan-3-ones as androgen receptor modulators” (priority 2002, dated 2009).

What was measured:
[1] = after 7 years of treatment
[2] = after a median of 22 months of treatment

| Compound | increase in spinal BMD [1] | reduction in nonvertebral fractures [2] | reduction in spine fractures [2] |
| --- | --- | --- | --- |
| NCCCC(O)(P(=O)([O-])O)P(=O)(O)O.O.O.O.[Na+] [alendronate, (4-amino-1-hydroxybutylidene)-bis-phosphonate monosodium trihydrate] | 11% | – | – |
| hPTH(1-34): human parathyroid hormone 1-34 fragment (SVSEIQLMHNLGKHLNSMERVEWLRKKLQDVHNF; Parathyroid hormone; UniProt P01270 32-65, looked up, fragment) | – | 54% | ≥ 65% |
